Data taken from publication PMC10986609, “Identification of fungal natural products with potent inhibition in Toxoplasma gondii” (Microbiology Spectrum, 2024).

Experiments:
[1] = test system: Toxoplasma gondii tachyzoites (RH88); experiment: T. gondii fixed concentration screen at 5 µM (luciferase); format: cell-based; conditions: 48 hours
Procedure: For the initial fixed concentration screening and IC50 determination in T. gondii, we utilized a luciferase expressing RH88 strain to quantify the number of live, actively replicating parasites. To construct this strain, the Fluc and DHFR selection markers had been integrated into the UPRT locus through CRISPR/Cas9, rendering the strain pyrimethamine-resistant ([6]). Screening was performed using a pure compound library provided by the University of Oklahoma Natural Products Discovery Group, containing 683 compounds derived primarily from fungal secondary metabolites. For purposes of testing, HFFs were grown in 96-well microtiter plates in preparation. The media we used to grow cells was referred to a D10 media that was composed of Dulbecco's Modified Eagle Medium (Thermo Fisher; Cat # 11995073), 10% Fetal Bovine Serum (Sigma-Aldrich; Cat # 12306C), 1 × non-essential amino acids (100 ×; Thermo Fisher; Cat # 11140050), HEPES buffer (1M; Fisher Scientific; Cat # SH3023701) at 0.4M, and 10 mg/mL of gentamicin (Fisher Scientific; Cat # 15710072). Compounds were then diluted to 10 µM in 100 µL of fresh D10 media. Each plate utilized artemisinin and DMSO vehicle controls. […] Finally, 100 µL of luciferase assay reagent (Promega; Cat# E1501) was added to each well, and luminescence was measured using a PHERAstar FSX plate reader (BMG Labtech, Germany).

[2] = test system: Toxoplasma gondii tachyzoites (RH88); experiment: microbe, parasite or virus in culture; conditions: Toxoplasma gondii, 48 h, read-out: TgRH88 IC50 (mean ± SEM)
Procedure: For the initial fixed concentration screening and IC50 determination in T. gondii, we utilized a luciferase expressing RH88 strain to quantify the number of live, actively replicating parasites. To construct this strain, the Fluc and DHFR selection markers had been integrated into the UPRT locus through CRISPR/Cas9, rendering the strain pyrimethamine-resistant ([6]). Screening was performed using a pure compound library provided by the University of Oklahoma Natural Products Discovery Group, containing 683 compounds derived primarily from fungal secondary metabolites. For purposes of testing, HFFs were grown in 96-well microtiter plates in preparation. The media we used to grow cells was referred to a D10 media that was composed of Dulbecco's Modified Eagle Medium (Thermo Fisher; Cat # 11995073), 10% Fetal Bovine Serum (Sigma-Aldrich; Cat # 12306C), 1 × non-essential amino acids (100 ×; Thermo Fisher; Cat # 11140050), HEPES buffer (1M; Fisher Scientific; Cat # SH3023701) at 0.4M, and 10 mg/mL of gentamicin (Fisher Scientific; Cat # 15710072). Compounds were then diluted to 10 µM in 100 µL of fresh D10 media. Each plate utilized artemisinin and DMSO vehicle controls. To each well, 2,500 parasites per 100 µL of D10 media were added. Three technical replicates were then performed. After 48 hours, 160 µL of the D10 media was removed, and plates were subjected to freezing then thawing. Following this, 10 µL of the passive lysis buffer (Promega; Cat# E1910) was added and incubated at room temperature for 15 min. Finally, 100 µL of luciferase assay reagent (Promega; Cat# E1501) was added to each well, and luminescence was measured using a PHERAstar FSX plate reader (BMG Labtech, Germany).
(§1) For IC50 and cytotoxicity determination, we used 384 plates with confluent HFF cells. Compounds were serially diluted 3-fold with a starting concentration of 20 µM. Samples were further diluted by adding an equal volume of media containing 700 parasites. DMSO and […] of KAE609 were used as negative and positive controls, respectively. Assays were performed with a total of three technical replicates and two biological replicates. After incubation for 48 hours, 50 µL of media was removed, and plates were subjected to freezing and thawing. Following this, 10 µL of passive lysis buffer was added and plates were incubated for 15 min at room temperature. Finally, 30 µL of luciferase reagent was added, and the luminescence was measured immediately using a PHERAstar FSX. In parallel, cytotoxicity dose response was performed in the same fashion without the addition of parasites. Cell counting kit-8 reagent (GlpBio; Cat # GK10001) was added at a 1:10 dilution and incubated at 37°C, 5% CO2 for 1 hour. The absorbance was then measured at 450 nm using a PHERAstar FSX. The data management system CDD vault was used for curve fitting and IC50 determination.

[3] = test system: human foreskin fibroblasts (HFFs); experiment: HFF cytotoxicity dose response (cell counting kit-8); conditions: Homo sapiens, Fibroblast, 48 h, read-out: HFF IC50 (mean ± SEM)
Procedure: as §1, with “Samples” for “For IC50 and cytotoxicity determination, we used 384 plates with confluent HFF cells. Compounds were serially diluted 3-fold with a starting concentration of 20 µM. Samples”

T. gondii = test system: T. gondii; design: method as in earlier work; conditions: 100 µM; cited from earlier work
[4] = test system: Plasmodium falciparum (Dd2); conditions: mean of duplicate or triplicate experiments; read-out: PfDd2 IC50; cited from earlier work
in vitro = conditions: human
Procedure: as §1, with “Samples” for “For IC50 and cytotoxicity determination, we used 384 plates with confluent HFF cells. Compounds were serially diluted 3-fold with a starting concentration of 20 µM. Samples”

C[C@@H]1CC[C@H]2[C@@H](C)C(=O)O[C@@H]3O[C@@]4(C)CC[C@@H]1[C@]32OO4 [Artemisinin, reference compound]
inhibition at 5 µM [1]: 94%
IC50 [2]: 0.702 ± 0.0247 µM
IC50 [3]: 10.5 µM

CC(C)[C@H]1CC[C@@]2(O)COC(=O)[C@H]2[C@@H]1/C=C(\CO)C(=O)O [hydroheptelidic acid, reference compound]
inhibition of T. gondii (T. gondii): no activity

COC(=O)[C@]12Oc3cc4c(c(O)c3C(=O)C1=C(O)CC[C@@H]2O)[C@@H]1C=C[C@@]2(C4)C(=O)c3cc(C)cc(O)c3C(O)=C2C1=O [compound 130147, Xanthoquinodin A2]
IC50 [4]: 0.68 µM
IC50 [2]: 0.0564 ± 0.0128 µM
IC50 (in vitro): 12.3 ± 0.3 µM
IC50 [3]: 12.3 µM
